Laboratory results as given in PubChem BioAssay AID292 (DTP/NCI, 2004).
Several values for one entry are separate records, joined by “and”; a condition that tells them apart may be missing. Equal values may be shown once. Toxic doses and inconclusive results are not listed.

System: B6C3F1 mice, ip Sarcoma M5076, median survival T/C
Assay: NCI In Vivo Anticancer Drug Screen. Data for tumor model Sarcoma M5076 (intraperitoneal) in B6C3F1 mice
Conditions: endpoint: median survival time, schedule: Q04DX004 (ip), higher = longer survival
In short: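 Tumour cells were transplanted into mice, compound or vehicle was given, survival of both groups was followed, and the treated figure was expressed over the control figure.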

[1] = dose: 25.0 mg/kg/injection, vehicle: saline with Tween-80
[2] = dose: 50.0 mg/kg/injection, vehicle: saline with Tween-80
[3] = dose: 100.0 mg/kg/injection, vehicle: saline with Tween-80
[4] = dose: 200.0 mg/kg/injection, vehicle: saline with Tween-80
[5] = dose: 400.0 mg/kg/injection, vehicle: saline with Tween-80
[6] = dose: 800.0 mg/kg/injection, vehicle: saline with Tween-80
[7] = dose: 125.0 mg/kg/injection, vehicle: saline with Tween-80
[8] = dose: 50.0 mg/kg/injection, vehicle: Klucel (hydroxypropylcellulose) (HPC)
[9] = dose: 100.0 mg/kg/injection, vehicle: Klucel (hydroxypropylcellulose) (HPC)
[10] = dose: 400.0 mg/kg/injection, vehicle: Klucel (hydroxypropylcellulose) (HPC)
[11] = dose: 200.0 mg/kg/injection, vehicle: Klucel (hydroxypropylcellulose) (HPC)
[12] = dose: 25.0 mg/kg/injection, vehicle: water
[13] = dose: 50.0 mg/kg/injection, vehicle: water
[14] = dose: 100.0 mg/kg/injection, vehicle: water
[15] = dose: 200.0 mg/kg/injection, vehicle: water

Compound: COC1=C(OC)C(=O)C(C(=O)CCCCC(=O)O)=C(C)C1=O
- T/C [1]: 100 % of control
- T/C [2]: 98 % of control and 105 % of control
- T/C [3]: 92 % of control and 97 % of control
- T/C [4]: 91 % of control
- T/C [5]: 91 % of control and 97 % of control
- T/C [6]: 95 % of control

Compound: C=CCCC(=O)CCCC(=O)O[C@@H]1[C@@H]2[C@H](CC1(C)C)[C@H](O)[C@@]13O[C@@H]1[C@H](O)[C@@]1(CO1)[C@@]23C
- T/C (dose: 50.0 micrograms/kg/injection, vehicle: Klucel (hydroxypropylcellulose) (HPC)): 92 % of control
- T/C (dose: 100.0 micrograms/kg/injection, vehicle: Klucel (hydroxypropylcellulose) (HPC)): 96 % of control
- T/C (dose: 200.0 micrograms/kg/injection, vehicle: Klucel (hydroxypropylcellulose) (HPC)): 96 % of control
- T/C (dose: 400.0 micrograms/kg/injection, vehicle: Klucel (hydroxypropylcellulose) (HPC)): 96 % of control
- T/C (dose: 800.0 micrograms/kg/injection, vehicle: Klucel (hydroxypropylcellulose) (HPC)): 93 % of control

Compound: Cn1c(=S)[nH]n(CCOc2ccccc2)c1=S
- T/C (dose: 31.25 mg/kg/injection, vehicle: saline with Tween-80): 105 % of control
- T/C (dose: 62.5 mg/kg/injection, vehicle: saline with Tween-80): 99 % of control
- T/C [7]: 101 % of control
- T/C (dose: 250.0 mg/kg/injection, vehicle: saline with Tween-80): 100 % of control

Compound: CCOC(=O)Nc1cc(NC(C)/C(=N/O)c2ccccc2)c([N+](=O)[O-])c(N)n1 (stereo not drawn)
- T/C [8]: 99 % of control and 100 % of control
- T/C [9]: 109 % of control and 123 % of control
- T/C (dose: 172.8 mg/kg/injection, vehicle: Klucel (hydroxypropylcellulose) (HPC)): 107 % of control
- T/C (dose: 288.0 mg/kg/injection, vehicle: Klucel (hydroxypropylcellulose) (HPC)): 119 % of control
- T/C [10]: 156 % of control
- T/C (dose: 13333.3 mg/kg/injection, vehicle: Klucel (hydroxypropylcellulose) (HPC)): 119 % of control

Compound: CC[C@@]1(O)C(=O)OCc2c1cc1n(c2=O)Cc2cc3ccccc3nc2-1
- T/C (dose: 0.37 mg/kg/injection, vehicle: saline with Tween-80): 107 % of control
- T/C (dose: 0.75 mg/kg/injection, vehicle: saline with Tween-80): 109 % of control
- T/C (dose: 1.5 mg/kg/injection, vehicle: saline with Tween-80): 118 % of control
- T/C (dose: 3.0 mg/kg/injection, vehicle: saline with Tween-80): 150 % of control
- T/C (dose: 6.0 mg/kg/injection, vehicle: saline with Tween-80): 153 % of control and 159 % of control

Compound: Cc1cc(C)cc(N(C2=NCCS2)C2=NCCS2)c1
- T/C [8]: 100 % of control
- T/C [9]: 96 % of control
- T/C [11]: 92 % of control
- T/C [10]: 99 % of control

Compound: Clc1cccc(N(C2=NCCS2)C2=NCCS2)c1
- T/C [8]: 107 % of control
- T/C [9]: 101 % of control
- T/C [11]: 101 % of control
- T/C [10]: 96 % of control
- T/C (dose: 800.0 mg/kg/injection, vehicle: Klucel (hydroxypropylcellulose) (HPC)): 92 % of control

Compound: O=C1C=CC(=CC=C2C=CN(CCCCCCCCCCCO)C=C2)C=C1
- T/C (dose: 6.25 mg/kg/injection, vehicle: saline with Tween-80): 102 % of control
- T/C (dose: 12.5 mg/kg/injection, vehicle: saline with Tween-80): 109 % of control
- T/C [1]: 102 % of control
- T/C [2]: 111 % of control

Compound: CCC1(O)C(=O)OCc2c1cc1n(c2=O)Cc2cc3cc(N)ccc3nc2-1 (stereo not drawn)
- T/C (dose: 7.5 mg/kg/injection, vehicle: suspension in saline): 160 % of control
- T/C (dose: 9.0 mg/kg/injection, vehicle: suspension in saline): 174 % of control
- T/C (dose: 15.0 mg/kg/injection, vehicle: suspension in saline): 170 % of control and 231 % of control
- T/C (dose: 25.0 mg/kg/injection, vehicle: suspension in saline): 150 % of control
- T/C (dose: 42.0 mg/kg/injection, vehicle: suspension in saline): 90 % of control

Compound: O=NNc1ncccn1
- T/C [12]: 101 % of control
- T/C [13]: 100 % of control
- T/C [14]: 97 % of control
- T/C [15]: 100 % of control
- T/C (dose: 400.0 mg/kg/injection, vehicle: water): 110 % of control

Compound: BrC[P+](CBr)(CBr)CBr
- T/C (dose: 15.63 mg/kg/injection, vehicle: saline with Tween-80): 107 % of control and 115 % of control
- T/C [7]: 186 % of control

Compound: COC1=CC(=O)C(OC)=C(OC)C1=O
- T/C (dose: 18.75 mg/kg/injection, vehicle: saline with Tween-80): 95 % of control
- T/C (dose: 37.5 mg/kg/injection, vehicle: saline with Tween-80): 95 % of control
- T/C (dose: 75.0 mg/kg/injection, vehicle: saline with Tween-80): 99 % of control
- T/C (dose: 150.0 mg/kg/injection, vehicle: saline with Tween-80): 97 % of control
- T/C (dose: 300.0 mg/kg/injection, vehicle: saline with Tween-80): 93 % of control

Compound: O=C(O)CCCCCCCC(=O)O
- T/C (dose: 75.0 mg/kg/injection, vehicle: distilled water + Tween-80): 111 % of control
- T/C (dose: 150.0 mg/kg/injection, vehicle: distilled water + Tween-80): 99 % of control
- T/C (dose: 300.0 mg/kg/injection, vehicle: distilled water + Tween-80): 93 % of control

Compound: Cc1ccc(C(=Nc2ccccc2)N=P(c2ccccc2)(c2ccccc2)c2ccccc2)cc1
- T/C [1]: 106 % of control
- T/C [2]: 93 % of control

Compound: NC(=S)N/N=C/c1ncccc1O
- T/C (dose: 50.0 mg/kg/injection, vehicle: suspension in saline): 103 % of control
- T/C (dose: 100.0 mg/kg/injection, vehicle: suspension in saline): 101 % of control
- T/C (dose: 200.0 mg/kg/injection, vehicle: suspension in saline): 101 % of control
- T/C (dose: 400.0 mg/kg/injection, vehicle: suspension in saline): 102 % of control

Compound: CC1C(C#N)C(=O)NC(=O)C1C#N (stereo not drawn)
- T/C (dose: 50.0 mg/kg/injection, vehicle: saline): 100 % of control
- T/C (dose: 100.0 mg/kg/injection, vehicle: saline): 104 % of control
- T/C (dose: 200.0 mg/kg/injection, vehicle: saline): 97 % of control
- T/C (dose: 400.0 mg/kg/injection, vehicle: saline): 97 % of control
- T/C (dose: 800.0 mg/kg/injection, vehicle: saline): 102 % of control

Compound: Cc1cccc(-n2c(CC#N)n[nH]c2=S)c1
- T/C [2]: 115 % of control
- T/C [3]: 109 % of control
- T/C [4]: 96 % of control
- T/C [5]: 106 % of control
- T/C [6]: 88 % of control

Compound: CNC(=O)c1ccccc1CNC(=S)Nc1cccc(C)c1
- T/C (dose: 37.5 mg/kg/injection, vehicle: Klucel (hydroxypropylcellulose) (HPC)): 92 % of control
- T/C (dose: 75.0 mg/kg/injection, vehicle: Klucel (hydroxypropylcellulose) (HPC)): 102 % of control
- T/C (dose: 150.0 mg/kg/injection, vehicle: Klucel (hydroxypropylcellulose) (HPC)): 99 % of control
- T/C (dose: 300.0 mg/kg/injection, vehicle: Klucel (hydroxypropylcellulose) (HPC)): 102 % of control

Compound: CCN(CC)CCN1C(=O)C2C3C=CC(C2C1=O)C1C2C(=O)N(CCN(CC)CC)C(=O)C2C31 (stereo not drawn)
- T/C [12]: 95 % of control
- T/C [13]: 99 % of control
- T/C [14]: 97 % of control
- T/C [15]: 99 % of control
